We go through five compounds from patent EP0104300A1, “Diazolyl alkanoles, process for their preparation and their use as antimycotic agents” (BAYER AG, priority 1982, dated 1984).

This experiment has as its system Candida-Zellen. Nature of the experiment: Antimycotic in-vivo efficacy (oral) in mouse candidosis. Also on record: species or system Mäuse vom Typ SPF-CF1; key: +++++: sehr gute Wirkung = 90 % Ueberlebende am 6.Tag p.i.; ++++: gute Wirkung = 80 % Ueberlebende am 6 Tag p.i.; +++: Wirkung = 60 % Ueberlebende am 6. Tag p.i.; ++: schwache Wirkung = 40 % Ueberlebende am 6.Tag p.i.; +: Spur Wirkung =; k.W.: keine Wirkung. The conditions noted are these: mice infected i.v. with 1 - 2 x 10^6 Candida cells; oral treatment with 50 - 100 mg/kg each, 1 h before and 7 h after infection; survivors on day 6 p.i. As to the method: Antimykotische in-vivo-Wirksamkeit (oral) bei Mäusecandidose Versuchsbeschreibun:
Mäuse vom Typ SPF-CF1 wurden intravenös mit 1 - 2 x 10^6 logarithmisch wachsenden Candida-Zellen, die in physiologischer Kochsalzlösung suspendiert werden, infiziert. Eine Stunde vor und sieben Stunden nach der Infektion werden die Tiere mit jeweils 50 - 100 mg/kg Körpergewicht der Präparate oral behandelt.
Unbehandelte Tiere starben 3 bis 6 Tage post infektionem. Die Ueberlebensrate am 6.Tag post infektionem betrug bei unbehandelten Kontrolltieren etwa 5 %. In diesem Test zeigten z.B. die erfindungsgemäßen Verbindungen eine bessere Wirkung als die aus dem Stand der Technik bekannten Verbindungen 1 und 3.
+++++ = sehr gute Wirkung = 90 % Ueberlebende am 6.Tag p.i. ++++ = gute Wirkung = 80 % Ueberlebende am 6 Tag p.i. +++ = Wirkung = 60 % Ueberlebende am 6. Tag p.i. ++ = schwache Wirkung = 40 % Ueberlebende am 6.Tag p.i. + = Spur Wirkung = k.W. = keine Wirkung
As for `OC(C#Cc1ccccc1)(Cn1cncn1)Cn1cncn1` [Beispiel 1, 3-Hydroxy-1-phenyL-4-(1,2,4-triazol-1-yl)-3-(1,2,4-triazol-1-yl-methyl)-1-butin], the Wirkung result was “+++ (Wirkung = 60 % Ueberlebende am 6. Tag p.i.)”.

In the case of `OC(C#Cc1ccc(Cl)cc1)(Cn1cncn1)Cn1cncn1` [Beispiel 3], the Wirkung entry was “+++++ (sehr gute Wirkung = 90 % Ueberlebende am 6.Tag p.i.)”.

In the case of `Cc1ccccc1OCC(O)(Cn1ccnc1)C(C)(C)C` (centres unmarked) [(C)], the Wirkung result is listed as “k.W”.

For `CC(C)(C)C(O)(COc1ccc(Cl)cc1)Cn1ccnc1` (centres unmarked) [(B), 2-(4-Chlorphenoxymethyl)-3,3-dimethyl-1-(imidazol-1-yl)-butan-2-ol], the Wirkung result is recorded as “k.W”.

With `OC(Cc1ccc(Cl)cc1Cl)(Cn1ccnc1)c1ccc(-c2ccccc2)cc1` (centres unmarked) [(A), 2-(4-Biphenylyl)-1-(2,4-dichlorphenyl)-3-(imidazoL-1-yL)-2-propanoL], the Wirkung result is given as “k.W”.
